Where two headings read alike, the source gives them in different places.
Legend:
[1] = from C=CCCCCC[C@H](NC(=O)OC(C)(C)C)C(=O)N1C[C@@]2(CCc3c(c(C4CCC4)nc4ccc(OC)cc34)O2)C[C@H]1C(=O)N[C@]1(C(=O)OCC)C[C@H]1C=C; rcm bond; Zhan's catalyst; DCE; 4.5 mM; 70.0 °C; 2.2 h
[2] = target: HCV NS3/4A protease genotype 3a (Hepatitis C virus genotype 3a, UniProt Q81495); test: HCV NS3/4A protease time-resolved fluorescence (TRF) assay, Ki against genotype 3a; assay type: biochemical
In short: (§1)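 Ki was converted from fitted IC50 using IC50=Ki(1+[S]/KM) and 25 nM substrate. Protease (genotype 1b 0.2 nM, A156T 0.4 nM, 3a 0.025 nM) and compound were pre-mixed 30 min in pH 7.5 HEPES/NaCl/glycerol/DTT buffer. Cleavage then proceeded 2.5 h at room temperature, detected by time-resolved europium fluorescence (340/615 nm).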

[3] = target: HCV NS3/4A protease genotype 1b (Hepatitis C virus genotype 1b, UniProt P26663); test: HCV NS3/4A protease time-resolved fluorescence (TRF) assay, Ki against genotype 1b; assay type: biochemical; details: IC50 [gt-1b], NS3/4A protease TRF assay, genotype 1b enzyme 0.2 nM
In short: as §1

[4] = target: HCV NS3/4A protease A156T mutant (Hepatitis C virus genotype 1b, UniProt P26663, A1182T); test: HCV NS3/4A protease time-resolved fluorescence (TRF) assay, Ki against A156T mutant; assay type: biochemical; details: NS3/4A protease TRF assay, A156T mutant enzyme 0.4 nM, read-out: IC50 [gt-1b A156T]
In short: as §1

HCV genotype 1b replicon = test: HCV replicon assay, genotype 1b replicon EC50; assay type: cell-based, Hepatitis C virus; details: Hepatitis C virus, HCV replicon, genotype 1b, read-out: EC50 [gt-1b]
In short: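 Stable neomycin-selected genotype 1b replicon cells, some carrying luciferase:Neo^r fusion, plated without G418 with a compound dilution series and incubated 24-48 h. Read-out was RNA (^32P-probe protection or TaqMan, normalized to cyclophilin A) or luciferase activity. EC50 from four-parameter fit as percent of DMSO control.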

| SMILES | IC50 [2] | IC50 [3] | IC50 [4] | EC50 (HCV genotype 1b replicon) | IC50 ([3]; K+ salt) | IC50 ([4]; K+ salt) | EC50 (HCV genotype 1b replicon; K+ salt) | further results |
| --- | --- | --- | --- | --- | --- | --- | --- | --- |
| CCOC(=O)[C@@]12C[C@H]1C=CCCCCC[C@H](NC(=O)OC(C)(C)C)C(=O)N1C[C@@]3(CCc4c(c(C5CCC5)nc5ccc(OC)cc45)O3)C[C@H]1C(=O)N2 | – | – | – | – | – | – | – | ring closure, yield of all isomers [1]: 72% |
| CCc1nc2ccc(OC)cc2c2c1O[C@]1(CC2)C[C@H]2C(=O)N[C@]3(C(=O)NS(=O)(=O)C4(C)CC4)C[C@H]3/C=C\CCCCC[C@H](NC(=O)c3cn[nH]c3)C(=O)N2C1 [Example 482, (2R,6S,12Z,13aS,14aR,16aS)-5′-ethyl-9′-methoxy-N-[(1-methylcyclopropyl)sulfonyl]-5,16-dioxo-6-[(1H-pyrazol-4-ylcarbonyl)amino]-1,1′,2′,6,7,8,9,10,11,13a,14,15,16,16a-tetradecahydrospiro[cyclopropa[e]pyrrolo[1,2-a][1,4]diazacyclopentadecine-2,3′-pyrano[2,3-c]quinoline]-14a(5H)-carboxamide] | 0.418 nM | 0.008 nM | 0.101 nM | 68.6 nM | – | – | – | – |
| CCc1nc2ccc(OC)cc2c2c1O[C@]1(CC2)C[C@H]2C(=O)N[C@]3(C(=O)NS(=O)(=O)C4(C)CC4)C[C@H]3/C=C\CCCCC[C@H](NC(=O)c3cc(C)cs3)C(=O)N2C1 [Example 483, (2R,6S,12Z,13aS,14aR,16aS)-5′-ethyl-9′-methoxy-N-[(1-methylcyclopropyl)sulfonyl]-6-{[(4-methylthiophen-2-yl)carbonyl]amino}-5,16-dioxo-1,1′,2′,6,7,8,9,10,11,13a,14,15,16,16a-tetradecahydrospiro[cyclopropa[e]pyrrolo[1,2-a][1,4]diazacyclopentadecine-2,3′-pyrano[2,3-c]quinoline]-14a(5H)-carboxamide] | 0.667 nM | 0.008 nM | 0.0969 nM | 0.438 nM | – | – | – | – |
| CCc1nc2ccc(OCCCOC)cc2c2c1O[C@]1(CC2)C[C@H]2C(=O)N[C@]3(C(=O)NS(=O)(=O)C4(C)CC4)C[C@H]3/C=C\CCCCC[C@H](NC(=O)OCC(C)C)C(=O)N2C1 [Example 484, 2-methylpropyl [(2R,6S,12Z,13aS,14aR,16aS)-5′-ethyl-9′-(3-methoxypropoxy)-14a-{[(1-methylcyclopropyl)sulfonyl]carbamoyl}-5,16-dioxo-1,1′,2′,5,6,7,8,9,10,11,13a,14,14a,15,16,16a-hexadecahydrospiro[cyclopropa[e]pyrrolo[1,2-a][1,4]diazacyclopentadecine-2,3′-pyrano[2,3-c]quinolin]-6-yl]carbamate] | 0.628 nM | – | – | – | 0.003 nM | 0.164 nM | 0.357 nM | – |
| CCc1nc2ccc(OCCCOC)cc2c2c1O[C@]1(CC2)C[C@H]2C(=O)N[C@]3(C(=O)NS(=O)(=O)C4(C)CC4)C[C@H]3/C=C\CCCCC[C@H](NC(=O)OCC(C)(C)C)C(=O)N2C1 [Example 488, 2,2-dimethylpropyl [(2R,6S,12Z,13aS,14aR,16aS)-5′-ethyl-9′-(3-methoxypropoxy)-14a-{[(1-methylcyclopropyl)sulfonyl]carbamoyl}-5,16-dioxo-1,1′,2′,5,6,7,8,9,10,11,13a,14,14a,15,16,16a-hexadecahydrospiro[cyclopropa[e]pyrrolo[1,2-a][1,4]diazacyclopentadecine-2,3′-pyrano[2,3-c]quinolin]-6-yl]carbamate] | 0.486 nM | – | – | – | 0.004 nM | 0.136 nM | 0.412 nM | – |
| CC1(S(=O)(=O)NC(=O)[C@@]23C[C@H]2/C=C\CCCCC[C@H](NC(=O)OC2C[C@@H]4C[C@@H]4C2)C(=O)N2C[C@@]4(CCc5c(c(C(F)(F)F)nc6ccc(OCF)cc56)O4)C[C@H]2C(=O)N3)CC1 (stereo partly drawn) [Example 501, (1R,5S)-bicyclo[3.1.0]hex-3-yl [(2R,6S,12Z,13aS,14aR,16aS)-9′-(fluoromethoxy)-14a-{[(1-methylcyclopropyl)sulfonyl]carbamoyl}-5,16-dioxo-5′-(trifluoromethyl)-1,1′,2′,5,6,7,8,9,10,11,13a,14,14a,15,16,16a-hexadecahydrospiro[cyclopropa[e]pyrrolo[1,2-a][1,4]diazacyclopentadecine-2,3′-pyrano[2,3-c]quinolin]-6-yl]carbamate] | 0.206 nM | – | – | – | 0.004 nM | 0.6 nM | 3.7 nM | – |
| CCc1nc2ccc(OC)cc2c2c1O[C@]1(CC2)C[C@H]2C(=O)N[C@]3(C(=O)NS(=O)(=O)C4(C)CC4)C[C@H]3/C=C\CCCCC[C@H](NC(=O)O[C@H](C)C3CC3)C(=O)N2C1 [Example 502, (1R)-1-cyclopropylethyl [(2R,6S,12Z,13aS,14aR,16aS)-5′-ethyl-9′-methoxy-14a-{[(1-methylcyclopropyl)sulfonyl]carbamoyl}-5,16-dioxo-1,1′,2′,5,6,7,8,9,10,11,13a,14,14a,15,16,16a-hexadecahydrospiro[cyclopropa[e]pyrrolo[1,2-a][1,4]diazacyclopentadecine-2,3′-pyrano[2,3-c]quinolin]-6-yl]carbamate] | 0.48 nM | 0.004 nM | 0.121 nM | 0.29 nM | – | – | – | – |
| CC(C)COC(=O)N[C@H]1CCCCC/C=C\[C@@H]2C[C@@]2(C(=O)NS(=O)(=O)C2(C)CC2)NC(=O)[C@@H]2C[C@]3(CCc4c(c(C(F)(F)F)nc5ccc(OCCCN6CCOCC6)cc45)O3)CN2C1=O [Example 511, 2-methylpropyl [(2R,6S,12Z,13aS,14aR,16aS)-14a-{[(1-methylcyclopropyl)sulfonyl]carbamoyl}-9′-[3-(morpholin-4-yl)propoxy]-5,16-dioxo-5′-(trifluoromethyl)-1,1′,2′,5,6,7,8,9,10,11,13a,14,14a,15,16,16a-hexadecahydrospiro[cyclopropa[e]pyrrolo[1,2-a][1,4]diazacyclopentadecine-2,3′-pyrano[2,3-c]quinolin]-6-yl]carbamate] | 0.258 nM | 0.008 nM | 0.235 nM | 0.782 nM | – | – | – | – |
| CCc1nc2ccc(OCCCN3CCOCC3)cc2c2c1O[C@]1(CC2)C[C@H]2C(=O)N[C@]3(C(=O)NS(=O)(=O)C4(C)CC4)C[C@H]3/C=C\CCCCC[C@H](NC(=O)OC(C)(C)C)C(=O)N2C1 [Example 514, tert-butyl {(2R,6S,12Z,13aS,14aR,16aS)-5′-ethyl-14a-{[(1-methylcyclopropyl)sulfonyl]carbamoyl}-9′-[3-(morpholin-4-yl)propoxy]-5,16-dioxo-1,1′,2′,5,6,7,8,9,10,11,13a,14,14a,15,16,16a-hexadecahydrospiro[cyclopropa[e]pyrrolo[1,2-a][1,4]diazacyclopentadecine-2,3′-pyrano[2,3-c]quinolin]-6-yl}carbamate] | 0.224 nM | 0.012 nM | 0.0681 nM | 0.668 nM | – | – | – | – |
| CCc1nc2ccc(OCCN3CCOCC3)cc2c2c1O[C@]1(CC2)C[C@H]2C(=O)N[C@]3(C(=O)NS(=O)(=O)C4(C)CC4)C[C@H]3/C=C\CCCCC[C@H](NC(=O)OCC(C)C)C(=O)N2C1 [Example 515, 2-methylpropyl {(2R,6S,12Z,13aS,14aR,16aS)-5′-ethyl-14a-{[(1-methylcyclopropyl)sulfonyl]carbamoyl}-9′-[2-(morpholin-4-yl)ethoxy]-5,16-dioxo-1,1′,2′,5,6,7,8,9,10,11,13a,14,14a,15,16,16a-hexadecahydrospiro[cyclopropa[e]pyrrolo[1,2-a][1,4]diazacyclopentadecine-2,3′-pyrano[2,3-c]quinolin]-6-yl}carbamate] | 0.292 nM | – | – | – | – | – | – | IC50 ([3]; HCl salt): 0.005 nM; IC50 ([4]; HCl salt): 0.0575 nM; EC50 (HCV genotype 1b replicon; HCl salt): 0.503 nM |

Reference: patent US8987195B2 (priority 2012, dated 2015)
